We go through six compounds from ChEMBL document CHEMBL2331547, “o-Benzenedisulfonimido-sulfonamides are potent inhibitors of the tumor-associated carbonic anhydrase isoforms CA IX and CA XII” (Bioorg Med Chem, 2013).

SMILES strings stand for the structures. pKi: −log10 of the molar value.

The assay has as its target Carbonic anhydrase 9 (Homo sapiens, UniProt Q16790). Put plainly: Inhibition of human recombinant carbonic anhydrase-9-mediated CO2 hydration preincubated for 10 mins by stopped-flow assay.
One may read the pKi as −log10 of the Ki, conventionally taken in molar units. As for `NS(=O)(=O)c1ccc(CCN2S(=O)(=O)c3ccccc3S2(=O)=O)cc1`, the pKi was 7.07.
In the case of `NS(=O)(=O)c1ccc(CN2S(=O)(=O)c3ccccc3S2(=O)=O)cc1`, the pKi was 7.30.
The value for `NS(=O)(=O)c1ccc(N2S(=O)(=O)c3ccccc3S2(=O)=O)c(Cl)c1` was 7.77.
The value for `NS(=O)(=O)c1ccc(N2S(=O)(=O)c3ccccc3S2(=O)=O)cc1` was 7.08.
The value for `NS(=O)(=O)c1cccc(N2S(=O)(=O)c3ccccc3S2(=O)=O)c1` was 7.49; that for `NS(=O)(=O)c1ccccc1N1S(=O)(=O)c2ccccc2S1(=O)=O` was 7.17.
